{"source": "patent US5750540A", "about": "“1,4-di-substituted piperidine derivatives” (Banyu Pharmaceutical Co., Ltd., priority 1995, dated 1998)", "key": {"[1]": {"tested_on": "M1 receptors (vas deferens)", "assay": "Antagonism against M1 receptors in an isolated rabbit vas deferens", "conditions": "in vitro, agonist McN A-343, 10 min", "procedure": "1) Tests for antagonism against the M1 receptors in an isolated rabbit vas deferens\nThese tests were performed according to an ordinary method. A male Japanese albino rabbit (weighing bout 3 kg) was killed by exsanguination from a femoral artery under anesthesia with pentobarbital, and the vasa deferentia were excised. Portions (1 cm long) thereof adjacent to the prostate were used as vas deferens preparations. A preparation was longitudinally suspended in a Magnus tube filled with 20 ml of Krebs-Henseleit nutrient solution [gassed with 95% O2 -5% CO2 and kept at 32° C.; containing […] yohimbine (a2 antagonist)] with an initial tension of 1.0 g. The tension of the preparation was recorded isometrically. After the preparation was equilibrated for 30 minutes, electrical stimuli (0.5 ms, 30 V) were applied thereto by means of a bipolar electrode to induce contractions at intervals of 20 seconds. […] Responses to McN A-343 were expressed as percentages based on the amount of contraction before administration of McN A-343. The antagonistic potency (KB value) of the test compound was determined from the degree of shift of the dose-response curve obtained by treatment with the test compound."}, "muscarinic M3 receptor [2]": {"target": "T1, muscarinic M3 receptor (Rattus norvegicus, UniProt P08483)", "T1 sequence (P08483 whole entry)": "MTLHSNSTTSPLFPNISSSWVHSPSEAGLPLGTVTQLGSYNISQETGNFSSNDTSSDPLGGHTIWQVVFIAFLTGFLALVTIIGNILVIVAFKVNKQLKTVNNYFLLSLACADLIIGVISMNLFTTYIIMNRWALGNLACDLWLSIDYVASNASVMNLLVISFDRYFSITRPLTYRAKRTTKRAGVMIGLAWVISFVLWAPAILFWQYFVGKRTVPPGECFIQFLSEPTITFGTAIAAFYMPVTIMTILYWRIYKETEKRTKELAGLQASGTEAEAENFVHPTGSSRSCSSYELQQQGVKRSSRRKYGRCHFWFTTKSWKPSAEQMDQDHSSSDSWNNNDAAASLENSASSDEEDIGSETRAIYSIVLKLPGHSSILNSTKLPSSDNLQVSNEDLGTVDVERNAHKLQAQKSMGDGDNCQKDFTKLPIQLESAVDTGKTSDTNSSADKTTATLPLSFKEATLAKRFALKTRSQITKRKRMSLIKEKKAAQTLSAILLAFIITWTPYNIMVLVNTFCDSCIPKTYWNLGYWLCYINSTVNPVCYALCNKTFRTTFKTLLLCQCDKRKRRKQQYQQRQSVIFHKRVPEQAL", "assay": "Intravesical bladder pressure in rats", "format": "in vivo", "set-up": "from tissue", "conditions": "i.v., 25% inhibition of peak intravesical bladder pressure", "procedure": "(§1) Tests for antagonism against muscarinic M3 receptor (in vivo)\n4) Tests for intravesical bladder pressure in rats\nThese tests were performed according to the method of Maggi et al. (Drug Dev. Res. 10: 157-170, 1987). Briefly, eight- to ten-weeks-old male rats of the Sprague-Dawley strain, weighing 330-370 g, were anesthetized by subcutaneous administration of urethane (1 g/kg) and α-chloralose (50 mg/kg), and the right jugular vein was cannulated for drug administration. The body temperature was kept constant by means of a heating pad maintained at 37° C. Through a midline incision of the abdomen, the urinary bladder was exposed and emptied of urine by the application of a slight manual pressure. A 20-gauge needle was inserted through the apex of the bladder dome by 3-4 mm into its lumen. The needle had previously been connected to a pressure transducer and an infusion pump by means of polyethylene tubing and the whole system filled with saline. After a 30-minutes equilibration period at zero volume, saline was infused (2.8 ml/hr) until a coordinated sustained contraction, reflecting the peak intravesical bladder pressure, occured. The bladder was then emptied manually and allowed to rest for five minutes. PvesP was defined as the difference between the maximum and resting bladder pressures. This procedure was repeated at least five times and the evaluation of a test compound was carried out in the animals in which a stable peak intravesical bladder pressure was recorded. The drug potency (ID25 ) was determined after intravenous administration of the test compound during the rest period. Five minutes after drug administration, the infusion of saline was started to induce micturition contraction and the peak intravesical bladder pressure was recorded. The depression in peak intravesical bladder pressure was expressed as a percent of the control peak intravesical bladder pressure observed before administration of the test compound. The ID25 value, calculated by probit analysis, was defined as the drug dose that inhibited the control peak intravesical bladder pressure by 25%."}, "muscarinic M2 receptors": {"target": "T2, muscarinic M2 receptors (Rattus norvegicus, UniProt P10980)", "T2 construct": "a membrane specimen from the heart was used as the membrane specimen; from tissue; host or cells: rat heart membranes (SD rat)", "T2 sequence (P10980 1-466)": "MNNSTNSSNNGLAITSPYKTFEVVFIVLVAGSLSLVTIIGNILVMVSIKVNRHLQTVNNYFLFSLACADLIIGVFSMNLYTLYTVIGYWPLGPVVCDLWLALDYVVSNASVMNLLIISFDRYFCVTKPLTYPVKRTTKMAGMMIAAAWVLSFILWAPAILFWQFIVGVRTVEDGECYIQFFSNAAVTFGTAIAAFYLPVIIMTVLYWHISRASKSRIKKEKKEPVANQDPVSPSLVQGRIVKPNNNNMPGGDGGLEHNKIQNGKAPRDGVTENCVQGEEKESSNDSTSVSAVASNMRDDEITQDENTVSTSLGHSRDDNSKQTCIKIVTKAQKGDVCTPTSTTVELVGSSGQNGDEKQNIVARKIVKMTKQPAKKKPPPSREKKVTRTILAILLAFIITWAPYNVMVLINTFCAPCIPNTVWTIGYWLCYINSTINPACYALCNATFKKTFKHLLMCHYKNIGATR", "assay": "Bradycardia in rats (acetylcholine-induced)", "format": "in vivo", "conditions": "iv, 5 min, i.v., 5 minutes after administration, 50% inhibition of acetylcholine-induced bradycardia, read-out: Bradycardia ID50", "procedure": "6) Tests for bradycardia in rats\nEight- to eleven-weeks-old male rats of the Sprague-Dawley strain, weighing 300-400 g, were anesthetized with urethane (750 mg/kg, i.p.) and α-chloralose (37.5 mg/kg, i.p.). A bronchus was intubated, and the right jugular vein was cannulated for drug administration. […] To evoke bradycardia, acetylcholine (50 μg/kg, i.v.) was administered to the animals. Mean values for the acetylcholine-induced decrease in heart rate as measured five minutes before (control) and five minutes after test compound administration were calculated and the results were expressed as percentages relative to the control response. The ID50 value was calculated from the dose-response curve of the test compound using probit analysis and defined as the drug dose that inhibited the acetylcholine-induced bradycardia in the control group by 50%."}, "muscarinic M3 receptor [3]": {"target": "T1, muscarinic M3 receptor", "assay": "in vivo", "set-up": "from tissue; host or cells: living rat, airways", "conditions": "iv, 5 min, read-out: Airway contraction ID50", "procedure": "as §1\n1) Tests for bronchodilation in rats\nEight- to eleven-weeks-old male rats of the Sprague-Dawley strain, weighing 300-400 g, were anesthetized with urethane (750 mg/kg, i.p.) and a-chloralose (37.5 mg/kg, i.p.). A bronchus was intubated, and the right jugular vein was cannulated for drug administration. […] To evoke an increase in airway resistance, acetylcholine (50 μg/kg, i.v.) was administered to the animals. Mean values for the acetylcholine-induced increase in airway resistance as measured five minutes before (control) and five minutes after test compound administration were calculated and the results were expressed as percentages of the control response. The ID50 value was calculated from the dose-response curve of the test compound using probit analysis and defined as the drug dose that inhibited the acetylcholine-induced increase in airway resistance in the control group by 50 %."}}}
{"smiles": "CC(C)=CCCN1CCC(NC(=O)C(O)(c2ccccc2)C2CCC2)CC1", "note": "(stereo not shown) [Example 1, N-[1-(4-methyl-3-pentenyl)-piperidin-4-yl]-2-cyclobutyl-2-hydroxy-2-phenylacetamide]", "values": [{"measurement": "Kb", "setting": "[1]", "value": 120, "unit": "nM"}, {"measurement": "Urinating contraction ID25", "setting": "muscarinic M3 receptor [2]", "value": 1.3, "unit": "mg/kg i.v."}, {"measurement": "ED50", "setting": "muscarinic M2 receptors", "value": "> 3", "unit": "mg/kg"}, {"measurement": "ED50", "setting": "muscarinic M3 receptor [3]", "value": 0.023, "unit": "mg/kg"}]}
